ChEMBL document CHEMBL2202975, “Inhibition of monoamine oxidase by 8-[(phenylethyl)sulfanyl]caffeine analogues” (Bioorg Med Chem, 2012)

What was measured:
[1] = target: T1, Amine oxidase [flavin-containing] A (Homo sapiens, UniProt P21397); experiment: Inhibition of human recombinant MAO-A expressed in insect cell microsome assessed as 4-hydroxyquinoline formation using kynuramine as substrate after 20 mins by fluorescence spectrophotometry; type: microsomes
T1 sequence (P21397 whole entry): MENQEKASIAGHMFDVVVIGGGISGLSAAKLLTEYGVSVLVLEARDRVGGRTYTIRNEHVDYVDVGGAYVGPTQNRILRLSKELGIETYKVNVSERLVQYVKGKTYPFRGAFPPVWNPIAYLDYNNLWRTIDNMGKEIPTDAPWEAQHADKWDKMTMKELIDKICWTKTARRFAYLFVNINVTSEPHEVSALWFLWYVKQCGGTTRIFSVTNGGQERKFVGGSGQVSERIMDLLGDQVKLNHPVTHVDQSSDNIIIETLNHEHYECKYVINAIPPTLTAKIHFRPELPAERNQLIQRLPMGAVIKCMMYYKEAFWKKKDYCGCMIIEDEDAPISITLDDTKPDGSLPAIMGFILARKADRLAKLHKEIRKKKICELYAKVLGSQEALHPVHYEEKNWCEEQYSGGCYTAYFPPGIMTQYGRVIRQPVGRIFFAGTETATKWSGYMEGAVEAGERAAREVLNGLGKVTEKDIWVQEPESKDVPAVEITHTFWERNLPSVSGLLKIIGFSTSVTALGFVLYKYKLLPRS

[2] = target: T2, Amine oxidase [flavin-containing] B (Homo sapiens, UniProt P27338)
T2 sequence (P27338 whole entry): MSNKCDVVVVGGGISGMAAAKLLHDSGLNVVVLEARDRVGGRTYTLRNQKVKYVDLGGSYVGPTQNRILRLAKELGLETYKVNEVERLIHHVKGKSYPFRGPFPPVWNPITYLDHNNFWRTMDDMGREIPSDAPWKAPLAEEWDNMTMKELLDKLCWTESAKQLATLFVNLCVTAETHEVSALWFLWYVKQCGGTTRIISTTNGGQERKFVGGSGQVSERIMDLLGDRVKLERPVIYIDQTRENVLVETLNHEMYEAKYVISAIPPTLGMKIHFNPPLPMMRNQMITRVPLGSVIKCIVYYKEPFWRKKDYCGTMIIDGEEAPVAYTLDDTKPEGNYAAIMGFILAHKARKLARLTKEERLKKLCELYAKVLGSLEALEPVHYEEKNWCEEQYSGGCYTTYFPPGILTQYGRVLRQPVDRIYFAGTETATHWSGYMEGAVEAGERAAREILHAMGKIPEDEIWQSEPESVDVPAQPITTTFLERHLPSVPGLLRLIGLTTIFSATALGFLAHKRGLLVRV
Description: Inhibition of human recombinant MAO-B expressed in insect cell microsome assessed as 4-hydroxyquinoline formation using kynuramine as substrate after 20 mins by fluorescence spectrophotometry

Homo sapiens = organism: Homo sapiens; experiment: Selectivity index, ratio of IC50 for human recombinant MAO-A to IC50 for human recombinant MAO-B
[3] = Octanol-water partition coefficient, log P of the compound by shake flask method; type: physicochemical
[4] = target: T2, Amine oxidase [flavin-containing] B; experiment: (§1) Reversible inhibition of human recombinant MAO-B expressed in insect cell microsome assessed as 4-hydroxyquinoline formation using kynuramine as substrate preincubated for 15 to 60 mins at 2 times IC50 measured after 15 mins following twofold compound dilution with addition of substrate by fluorescence spectrophotometry; type: microsomes; conditions: 0.25 h
[5] = target: T2, Amine oxidase [flavin-containing] B; experiment: as §1, with “Time dependent” for “Reversible”; type: microsomes; conditions: 0.25 h
[6] = target: T1, Amine oxidase [flavin-containing] A; experiment: as §1, with “MAO-A” for “MAO-B”; type: microsomes; conditions: 0.25 h
[7] = target: T2, Amine oxidase [flavin-containing] B; experiment: Competitive inhibition of human recombinant MAO-B expressed in insect cell microsome using kynuramine as substrate by Lineweaver-Burk plot analysis; type: microsomes
[8] = target: T2, Amine oxidase [flavin-containing] B; experiment: as §1, with “enzyme activity recovery” for “4-hydroxyquinoline formation”, “30” for “15 to 60”, “100xIC50” for “2 times IC50”, “20” for “15”, “100-fold” for “twofold”; type: microsomes; design: scale not given: the % may be the effect or the level left
[9] = target: T2, Amine oxidase [flavin-containing] B; experiment: Competitive inhibition of human recombinant MAO-B expressed in insect cell microsome using kynuramine as substrate by Morrison equation analysis; type: microsomes
[10] = target: T1, Amine oxidase [flavin-containing] A; experiment: Inhibition of human recombinant MAO-A expressed in insect cell microsome assessed as 4-hydroxyquinoline formation using kynuramine as substrate at 100 uM after 20 mins by fluorescence spectrophotometry; type: microsomes

| Compound | IC50 [1] [nM] | IC50 [2] [nM] | Ratio IC50 (Homo sapiens) | logP [3] | also measured |
| --- | --- | --- | --- | --- | --- |
| Cn1c(=O)c2c(nc([S+]([O-])Cc3ccccc3)n2C)n(C)c1=O (stereo unspecified) | 250000 | 131000 | 2 | – | – |
| Cn1c(=O)c2c(nc(SCc3cccc(Cl)c3)n2C)n(C)c1=O | 6430 | 227 | 28 | – | – |
| Cn1c(=O)c2c(nc(SCCc3cccc(Cl)c3)n2C)n(C)c1=O | 5660 | 43 | 132 | – | – |
| Cn1c(=O)c2c(nc(SCCc3cccc(Br)c3)n2C)n(C)c1=O | 5700 | 40 | 143 | – | – |
| Cn1c(=O)c2c(nc([S+]([O-])CCc3ccc(Br)cc3)n2C)n(C)c1=O (stereo unspecified) | 57300 | 471 | 122 | – | – |
| COc1ccc(CCSc2nc3c(c(=O)n(C)c(=O)n3C)n2C)cc1 | 168000 | 23 | 7300 | 2.55 | – |
| Cn1c(=O)c2c(nc(SCCc3ccc(F)cc3)n2C)n(C)c1=O | 14700 | 71 | 207 | – | – |
| Cn1c(=O)c2c(nc([S+]([O-])CCc3ccc(F)cc3)n2C)n(C)c1=O (stereo unspecified) | 239000 | 3500 | 68 | – | – |
| Cn1c(=O)c2c(nc(SCc3cccc(Br)c3)n2C)n(C)c1=O | 37900 | 199 | 190 | – | – |
| Cn1c(=O)c2c(nc(SCCc3ccc(Br)cc3)n2C)n(C)c1=O | 108000 | 19 | 5680 | 2.98 | – |
| Cn1c(=O)c2c(nc(SCCCc3ccc(Cl)cc3)n2C)n(C)c1=O | 708 | 61 | 12 | 3.59 | – |
| Cn1c(=O)c2c(nc(SCCc3ccccc3)n2C)n(C)c1=O | 18700 | 271 | 69 | 3.22 | – |
| Cc1ccc(CCSc2nc3c(c(=O)n(C)c(=O)n3C)n2C)cc1 | 125000 | 72 | 1740 | 3.15 | – |
| COc1cccc(CCSc2nc3c(c(=O)n(C)c(=O)n3C)n2C)c1 | 48100 | 125 | 385 | – | – |
| Cn1c(=O)c2c(nc(SCCCc3cccc(Cl)c3)n2C)n(C)c1=O | 3530 | 62 | 57 | 3.76 | – |
| Cn1c(=O)c2c(nc(SCCCc3ccccc3)n2C)n(C)c1=O | 6480 | – | – | 3.3 | – |
| Cn1c(=O)c2c(nc(SCCc3ccc(Cl)cc3)n2C)n(C)c1=O | 8460 | 20 | 423 | – | inhibition (INH) [4]: Active; inhibition (INH) [5]: Active; inhibition (INH) [6]: Active; Ki [7]: 13 nM; Activity [8]: 26%; Ki [9]: 9.8 nM |
| Cc1cccc(CCSc2nc3c(c(=O)n(C)c(=O)n3C)n2C)c1 | 12000 | 51 | 235 | – | – |
| Cn1c(=O)c2c(nc(SCCc3cccc(C(F)(F)F)c3)n2C)n(C)c1=O | 141000 | 17 | 8290 | 3.14 | Activity [8]: 22% |
| Cn1c(=O)c2c(nc([S+]([O-])CCc3ccc(Cl)cc3)n2C)n(C)c1=O (stereo unspecified) | 203000 | 781 | 260 | – | – |
| Cn1c(=O)c2c(nc(SCCc3ccc(C(F)(F)F)cc3)n2C)n(C)c1=O | – | 19 | – | 3.21 | inhibition (INH) [10]: Not Active |
